# Experimental data taken from PubChem BioAssay (NCI).
#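 Interpolation was linear, between the two tested concentrations surrounding the appropriate level; five concentrations were tested over 48 hours in 96-well plates. The concentration for full growth arrest is given as TGI.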
# Key:
# Assay in all cases: inhibition of tumour cell growth, NCI panel, 48 h
# CAKI-1 renal = system: CAKI-1 renal
# EKVX NSCLC = system: EKVX NSCLC
# HOP-62 NSCLC = system: HOP-62 NSCLC
# IGROV1 ovarian = system: IGROV1 ovarian
# MCF7 breast = system: MCF7 breast
# MDA-MB-231 breast = system: MDA-MB-231 breast
# MDA-N = system: MDA-N
# MOLT-4 leukemia = system: MOLT-4 leukemia
# OVCAR-4 ovarian = system: OVCAR-4 ovarian
# OVCAR-5 ovarian = system: OVCAR-5 ovarian
# SF-295 CNS = system: SF-295 CNS
# SK-MEL-2 melanoma = system: SK-MEL-2 melanoma
# SN12C renal = system: SN12C renal
# SW-620 colon = system: SW-620 colon
# UACC-257 melanoma = system: UACC-257 melanoma
# UACC-62 melanoma = system: UACC-62 melanoma
# UO-31 renal = system: UO-31 renal
SMILES,TGI (CAKI-1 renal) [µM],TGI (EKVX NSCLC) [µM],TGI (HOP-62 NSCLC) [µM],TGI (IGROV1 ovarian) [µM],TGI (MCF7 breast) [µM],TGI (MDA-MB-231 breast) [µM],TGI (MDA-N) [µM],TGI (MOLT-4 leukemia) [µM],TGI (OVCAR-4 ovarian) [µM],TGI (OVCAR-5 ovarian) [µM],TGI (SF-295 CNS) [µM],TGI (SK-MEL-2 melanoma) [µM],TGI (SN12C renal) [µM],TGI (SW-620 colon) [µM],TGI (UACC-257 melanoma) [µM],TGI (UACC-62 melanoma) [µM],TGI (UO-31 renal) [µM]
O=C1NC(=S)NC(=O)C1=Cc1ccc(-c2ccccc2)cc1,> 100,> 100,> 100,> 100,> 100,> 100,> 100,> 100,> 100,> 100,> 100,> 100,> 100,> 100,> 100,> 100,> 100
O=C(O)C1CCCCN1C(=O)Cc1c[nH]c2ccccc12 (configuration not stated),> 100,> 100,> 100,> 100,> 100,> 100,> 100,> 100,> 100,> 100,> 100,> 100,> 100,> 100,> 100,> 100,
O=C1C2Cc3c(n(C(=O)c4ccccc4)c4ccccc34)CC2C(=O)N1c1ccc(Nc2ccc(N3C(=O)C4Cc5c(n(C(=O)c6ccccc6)c6ccccc56)CC4C3=O)cc2)cc1 (configuration not stated),> 100,> 100,> 100,> 100,> 100,> 100,> 100,> 100,> 100,> 100,> 100,,> 100,,> 100,> 100,> 100
NC(=O)c1nnsc1NN=O,> 100,> 100,> 100,> 100,> 100,> 100,> 100,> 100,> 100,> 100,> 100,> 100,> 100,> 100,> 100,> 100,> 100
CC(C)CCC[C@@H](C)C1CCC2[C@@H]3CCC4C[C@@H](NS(C)(=O)=O)CC[C@]4(C)C3CC[C@@]21C (some centres not stated),> 100,> 100,> 100,> 100,> 100,> 100,> 100,> 100,> 100,,> 100,> 100,> 100,> 100,> 100,> 100,> 100
CCO/C(O)=C(/C(=N)N1CCCC1)C(=O)Nc1cccc(Cl)c1,> 100,> 100,> 100,> 100,> 100,> 100,> 100,> 100,> 100,> 100,> 100,> 100,> 100,> 100,> 100,> 100,
CSc1nn(C)cc2nc(C)nc1-2,> 100,> 100,> 100,> 100,> 100,> 100,> 100,> 100,,> 100,> 100,> 100,> 100,> 100,> 100,> 100,> 100
Oc1cnc2c(O)cccc2c1,,57.2,> 100,> 100,> 100,> 100,> 100,> 100,,> 100,> 100,> 100,> 100,> 100,> 100,62.3,> 100
CCCCCCNC(=S)N/N=C(\C)c1ccccn1,40.4,47.2,14.9,18.4,19,14.4,20.6,,34.7,25.9,12.5,22.7,14,19.3,15.3,6.37,10.9
OC(Cc1ccc2ccccc2n1)(C(F)(F)Cl)C(F)(F)Cl,> 10,> 10,> 10,> 10,> 10,> 10,> 10,> 10,> 10,> 10,> 10,,> 10,> 10,> 10,> 10,> 10
CC(C)CC(NP(=O)(O)OC1OC(C)C(O)C(O)C1O)C(=O)NC(Cc1c[nH]c2ccccc12)C(=O)O (configuration not stated),> 100,> 100,> 100,> 100,> 100,> 100,> 100,> 100,> 100,> 100,> 100,,> 100,> 100,> 100,> 100,> 100
CCOC(=O)N(C)C(=C(F)F)C(F)(F)F,,89.2,68.9,62.4,> 100,84.2,40.2,51.6,90.8,> 100,> 100,44.5,,67.9,> 100,,> 100
CCN(CC)c1ccc(C2Nc3ccc4ccccc4c3C3=C2C(=O)CCC3)cc1 (configuration not stated),> 100,> 100,69.5,,> 100,50.8,> 100,> 100,46.4,> 100,> 100,> 100,> 100,> 100,> 100,> 100,> 100
COc1cc(C2SCC(=O)N2c2ccc(NC(C)=O)cc2)cc(OC)c1OC (configuration not stated),> 100,> 100,,> 100,> 100,> 100,> 100,> 100,> 100,> 100,> 100,> 100,> 100,> 100,> 100,> 100,> 100
Cc1cc(S(=O)(=O)NC2=NCCN2Cc2ccccc2)c(S)cc1Cl,> 100,> 100,> 100,> 100,> 100,> 100,> 100,> 100,> 100,> 100,> 100,> 100,> 100,> 100,> 100,> 100,
COC(=O)c1cc(NC(=O)c2cc(NC(=O)Cc3c[nH]c4ccccc34)cn2C)cn1C,> 100,74.3,> 100,,> 100,77.1,> 100,> 100,> 100,> 100,> 100,68.1,> 100,> 100,,60.8,85.2
N/C(=N\N=C\c1cc(I)cc(I)c1O)NO,> 100,> 100,> 100,> 100,74.7,> 100,> 100,> 100,> 100,> 100,> 100,> 100,> 100,> 100,> 100,95.5,
CCOC(=O)CCC(NC(=O)C(N)c1ccc([N+](=O)[O-])cc1)C(=O)NC(CCC(=O)OCC)C(=O)OCC (configuration not stated),,> 100,> 100,> 100,> 100,> 100,> 100,> 100,,> 100,,> 100,> 100,> 100,> 100,> 100,> 100
O=[N+]([O-])c1ccc(C2=NOC(c3ccc(Cl)cc3)N2C23CC4CC(CC(C4)C2)C3)cc1 (configuration not stated),> 100,> 100,> 100,> 100,> 100,> 100,> 100,> 100,> 100,,> 100,> 100,> 100,> 100,> 100,> 100,> 100
O=C1/C(=C/c2[nH]ncc2-c2ccc(Cl)cc2)C(=O)N(c2ccccc2)C1c1ccccc1 (configuration not stated),31.1,51.3,63.2,45.1,> 100,42.6,36.9,41,96.5,,50.7,35.2,85.7,45.2,64.7,27.8,58.7
NS(=O)(=O)c1nnc(NC(=O)c2cccc([N+](=O)[O-])c2)s1,> 100,> 100,> 100,,> 100,> 100,> 100,> 100,> 100,> 100,> 100,> 100,> 100,> 100,> 100,> 100,> 100
CCCC(C)NC(=O)c1ccc(N(C)Cc2cnc3nc(N)nc(N)c3n2)cc1 (configuration not stated),> 100,> 100,89.4,> 100,78,> 100,> 100,> 100,,88.6,> 100,49,> 100,> 100,57.5,25.7,> 100
